# PMC3869945, “Synthetic 1,4-Pyran Naphthoquinones Are Potent Inhibitors of Dengue Virus Replication” (PLoS ONE, 2013)
# Experiments:
# [1] = target: T1, DENV-2 NS3 (full-length, NS3FL) ATPase activity (Dengue virus type 2, UniProt P14340); experiment: Colorimetric NTPase (ATPase) assay with purified full-length NS3; format: biochemical; details: for NS3 ATPase inhibition, statistical difference from control (unpaired t-test, p < 0.05): screening in duplicate; for IC50: compound ≤ 100 μM
# T1 construct: The fragment corresponding to amino acids 1 to 619 of NS3FL was amplified; 10xHis (N, cleaved yes); ubiquitin (N, cleaved yes); made in house; host or cells: E. coli Rosetta (λDE3)
# T1 sequence (P14340 1476-2093): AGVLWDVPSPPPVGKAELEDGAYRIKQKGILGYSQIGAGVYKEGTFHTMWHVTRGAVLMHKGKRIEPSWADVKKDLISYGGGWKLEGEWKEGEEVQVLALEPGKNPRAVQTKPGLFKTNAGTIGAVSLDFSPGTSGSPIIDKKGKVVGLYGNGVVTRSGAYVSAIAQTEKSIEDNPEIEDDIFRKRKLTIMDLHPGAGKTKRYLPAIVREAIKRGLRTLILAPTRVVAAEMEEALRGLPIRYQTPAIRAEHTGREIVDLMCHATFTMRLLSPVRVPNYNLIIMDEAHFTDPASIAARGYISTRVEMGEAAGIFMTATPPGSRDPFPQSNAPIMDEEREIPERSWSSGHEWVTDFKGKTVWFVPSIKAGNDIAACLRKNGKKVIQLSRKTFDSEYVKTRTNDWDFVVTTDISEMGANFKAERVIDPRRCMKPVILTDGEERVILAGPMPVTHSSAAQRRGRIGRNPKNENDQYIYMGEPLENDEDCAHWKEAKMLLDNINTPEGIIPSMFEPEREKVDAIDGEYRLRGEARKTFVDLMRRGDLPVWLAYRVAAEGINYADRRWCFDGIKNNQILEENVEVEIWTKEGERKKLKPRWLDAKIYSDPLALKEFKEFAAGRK
# Description: The ATPase activity of NS3 was determined by measuring the extension of hydrolysis of NTP to NDP and Pi. The amount of free inorganic phosphate released was calculated by the hydrolysis of ATP using a standard curve with known Pi concentrations, and the reaction was measured at 660 nm using SpectraMax M5 spectrophotometer (Molecular Devices). Compounds were diluted from 20 mM or 40 mM stock solution prepared in 100% DMSO. These compounds were diluted to a final concentration of 10% DMSO in the assay buffer. The compound screening assay was performed in 96-well plate, and in each well reaction containing 600 nM NS3FL, 40 mM Tris-HCl (pH 7.5), 5 mM MgCl2, 5 mM DTT, 0.1M KCl were pre-incubated with 50µM of compounds (or varying concentrations of the compound) for 10 min at 30 °C. The kinetic activity was initiated by the addition of 1 mM of ATP substrate and incubation for 10 min at 30°C. Reactions were stopped with addition of 20 μL 50% TCA, followed by 80 μL of ammonium molibidate solution and 40 μL of reducing agent. Absorbance was read and data were processed on Sigma Plot Version 10.0. The initial reaction velocities (Vi) of product formation were determined from progress curves using the linear regression method and data converted to residual activity and/or calculate IC50% assuming Michelis-Mentem kinetics. The experiments were carried out in duplicate and the statistical difference between the inhibition reaction in the presence of each compound and the control were evaluated by unpaired t-test analysis.
# Once the ATPase activity was confirmed after purification process, we used the colorimetric assay developed by Fiske and Subbarow for the screening of compounds, which was performed using 600 nM of NS3FL in reactions containing 40 mM Tris-HCl (pH 7.5), 5 mM DTT, 100 mM KCl, 5 mM MgCl2, and 1 mM ATP and 50 µM of the pyran naphthoquinones 8, 9 and 10. […] The percentage of NS3FL ATPase activity inhibition varied from 15 to 50% of the untreated control.
# DENV-2 [2] = experiment: Virus replication inhibition assay in Vero cells, cell-free viral RNA by qPCR; format: cell-based; details: for % of Inhibition of DENV-2 Replication (qPCR): DENV-2 infected Vero cells, m.o.i 0.1, 72 h, highest non-toxic concentration (μM, in parentheses after label): 8d 25, 9b and 9c 100, 10a and 10b 12.5, Ribavirin 200; for Inhibition of DENV-2 replication (in words): highest non-toxic concentration; for IC50: qPCR, 100 to 0.4 μM dose response, Hill regression
# Description: In order to test the anti-viral effect of the compounds used in this work, monolayers of Vero cells were inoculated with DENV-2 at an m.o.i of 0.1 for 2 hours. After this period, cells were washed with 1X PBS to remove unbound viruses and fresh media was added with the highest non-cytotoxic concentration of the compounds. Infected cells were also cultured with culture medium or 1% DMSO, as negative controls, or with 200μM of Ribavirin® as reference drug for DENV replication inhibition. After 72 h, culture supernatants were collected and viral RNA was extracted using the QIAamp Viral RNA Mini Kit (Qiagen – Hamburg, Germany), according to manufacturer’s instructions. The synthesis of cDNA was performed with random hexamers as primers and the High Capacity cDNA kit (LifeTechnologies – Carlsbad, USA) according to manufacturer’s instructions. The detection and quantification of the cell free viral genomic RNA was performed by qPCR using specific primers and probe hybridizing in the protein E gene region as already described. qPCR conditions were as follow: a reaction mixture consisting of 12.5μL of TaqMan (Invitrogen – Carlsbad, USA), 50 pmol of each primer, 9 pmol of the probe and 7μL of the cDNA reaction to a final volume of 25μL was submitted to 40 cycles of amplification in a ABI PRISM 7000 Detection System (LifeTechnologies – Carlsbad, USA) using 60°C annealing temperature. Amplification results were analyzed using the 7000 SDS software (LifeTechnologies – Carlsbad, USA) and the threshold parameter was manually adjusted.
# The efficiency of the qPCR was calculated based on the slope of a Ct versus Template Concentration curve. To generate the calibration curve, a purified stock of DENV-2 containing 10^5 Plaque forming unities/ml was serially diluted and used to RNA extraction followed by cDNA synthesis, which was in turn used as template for the qPCR. A value of -3.30 was achieved, which represents an efficiency close to 100%. Based on this efficiency for the qPCR, the percentage of inhibition of DENV replication was calculated by the ΔΔCT method.
# A dose response curve was also performed with the compounds that inhibited DENV replication by at least 30%. For this purpose, DENV-2-infected Vero cells were cultured with the selected compounds at concentrations varying from 100 to 0.4 μM and virus replication was measured by qPCR as above. IC50 values were obtained by the Hill’s regression curve using the software Prism 5. Experiments were always performed in triplicates. All results were confirmed in HepG2 cells by qPCR and by TCID50 in Vero cells.
# Vero cells = experiment: Cytotoxicity assay, neutral red staining (confirmed with CellTiter Blue); format: cell-based, African Green Monkey; details: for Viability of uninfected host cell cultures: up to 100 µM, 72 h, neutral red
# Description: Cell toxicity of all compounds used in this work was tested in Vero and HepG2 cells by Neutral Red dye exclusion assay. Briefly, cells were cultured with varying concentrations of each compound and incubated for 72 hours at 37°C. After this period, the cells were incubated with 0.05% neutral red solution for 3 hours, washed with 1X PBS and fixed with 20% paraformaldehyde for 5 min. Cells were washed again and the incorporated dye was extracted with a 50% methanol and 1% acetic acid solution for 20 min. Plates were read at 490nm in a ELISA reader. Results obtained with the neutral red dye exclusion assay were confirmed using the CellTiter Blue Cell Viability Kit (Promega, Madison - USA) according to manufacturer’s instructions.
# The compounds were initially screened regarding their toxicity level after culturing Vero and HepG2 cells with the effective concentration of each compound. After 72h, cellular viability was analyzed by neutral red staining and confirmed by the conversion of redox resazurin into fluorescent resorufin.
# DENV-2 [3] = experiment: Tissue Culture Infectious Dose (TCID50) confirmation of replication inhibition in Vero cells; format: cell-based; details: DENV-2 infected Vero cells
# Description: Viruses used in this work include a DENV-2 prototype 16681 and a Brazilian isolate (44/02 - from Fundação Oswaldo Cruz – RJ - Brazil). Virus stocks were generated by infecting Vero cells at an 80% confluence with a multiplicity of infection (m.o.i) of 0.1. Infected cells were incubated at 37 °C for 5-7 days and inspected every day until the cytopathic effect was clearly observed. Supernatants were then collected, centrifuged at 1,200 x g for 10 min. to clear cellular debris and stored at -70°C until use. The titter of viral stocks was measured by TCID(50)% using serial dilutions of 10^1 to 10^7 of the viral stocks inoculated into Vero cells. The viral titter was calculated according with Reed and Munch.
# A dose response curve was also performed with the compounds that inhibited DENV replication by at least 30%. For this purpose, DENV-2-infected Vero cells were cultured with the selected compounds at concentrations varying from 100 to 0.4 μM and virus replication was measured by qPCR as above. […]
# To analyze the impact of the selected compounds on DENV replication, cells were infected and cultured with the highest non-toxic concentration of each compound and virus replication was analyzed by qRT-PCR. […] The differences in the percentage of inhibition when viral replication was measured by qRT-PCR and TCID50 were probably due to the differences in the sensibility of these assays. […]
# [4] = target: T2, DENV-2 NS3 protease domain linked to the NS2B cofactor (Dengue virus type 2, UniProt P14340); experiment: NS3 protease inhibition assay with NS2B cofactor; format: biochemical; details: in the presence of the NS2b cofactor, data not shown
# T2 construct: the NS3 protease domain linked to the NS2B cofactor was purified; made in house
# T2 sequence (P14340 1476-1653): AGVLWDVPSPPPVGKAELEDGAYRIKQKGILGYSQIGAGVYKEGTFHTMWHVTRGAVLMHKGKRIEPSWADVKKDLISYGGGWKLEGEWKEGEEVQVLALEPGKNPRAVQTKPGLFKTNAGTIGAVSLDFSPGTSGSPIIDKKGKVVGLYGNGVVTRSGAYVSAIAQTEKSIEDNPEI
# T2 sequence (P14340 1398-1437): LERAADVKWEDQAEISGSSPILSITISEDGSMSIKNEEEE
# Description: We also evaluated whether the compounds were able to suppress the proteolytic activity of DENV-2 NS3. Several studies have shown that the NS2B cofactor is required by the protease domain to form a proteolytic active domain [47, 48]. Therefore, the NS3 protease domain linked to the NS2B cofactor was purified and the inhibition assay was performed as described by Leung and co-workers.
compound,measurement,setting,value
Cc1ccc(C2CC(c3ccc([N+](=O)[O-])cc3)C3=C(O2)c2ccccc2C(=O)C3=O)cc1 (stereo not drawn) [8b],"NS3 ATPase inhibition, statistical difference from control (unpaired t-test, p < 0.05)",[1]; 50 µM compound,statistically different
O=C1C2=C(C(=O)c3ccccc31)C(c1ccccc1)C1=C(O2)C(=O)c2ccccc2C1=O [10a],% of Inhibition of DENV-2 Replication (qPCR),DENV-2 [2],0%
same,"NS3 ATPase inhibition, statistical difference from control (unpaired t-test, p < 0.05)",[1]; 50 µM compound,statistically different
Cc1ccc(C2CC(c3cccs3)C3=C(O2)c2ccccc2C(=O)C3=O)cc1 (stereo not drawn) [8c],Toxicity to the cell culture,Vero cells; concentration as low as 0.4 μM,highly toxic
same,Reduction of the NS3 ATPase activity,"[1]; 50 µM compound, 600 nM NS3FL, 1 mM ATP",two-fold reduction
same,"NS3 ATPase inhibition, statistical difference from control (unpaired t-test, p < 0.05)",[1]; 50 µM compound,statistically different
Cc1ccc(C2CC(c3ccccc3)C3=C(O2)c2ccccc2C(=O)C3=O)cc1 (stereo not drawn) [8d],% of Inhibition of DENV-2 Replication (qPCR),DENV-2 [2],0%
same,Inhibition of DENV-2 replication (in words),DENV-2 [2]; Vero cells,did not inhibit DENV-2 replication
Cc1ccc(C2CC(c3ccc([N+](=O)[O-])cc3)C3=C(O2)C(=O)c2ccccc2C3=O)cc1 (stereo not drawn) [9b],inhibition at 100 µM,"DENV-2 [3]; Dengue virus, DENV2, Vero",99.8%
same,Viability of uninfected host cell cultures,Vero cells,did not reduce the viability
same,Effect against the NS3 protease activity,[4],did not observe any effect
same,% of Inhibition of DENV-2 Replication (qPCR),DENV-2 [2],99.0%
same,IC50,DENV-2 [2]; Vero cells,1640 nM
same,IC50,"[1]; 600 nM NS3FL, 1 mM ATP",> 100000 nM
Cc1ccc(C2CC(c3ccc([N+](=O)[O-])cc3)C3=C(O2)C(=O)c2ccccc2C3=O)cc1 (stereo not drawn) [9c],% of Inhibition of DENV-2 Replication (TCID50),DENV-2 [3]; 100 μM,99.99%
same,Viability of uninfected host cell cultures,Vero cells,did not reduce the viability
same,Effect against the NS3 protease activity,[4],did not observe any effect
same,% of Inhibition of DENV-2 Replication (qPCR),DENV-2 [2],99.6%
same,IC50 of 9c fold lower than that of compound 9b,DENV-2 [2]; DENV-2 replication in Vero cells,5.3 fold
same,"Concentration to inhibit 50% of DENV replication, fold lower than aglycon analogue of teicoplanin",DENV-2 [2]; Vero cells,20 fold
same,IC50,DENV-2 [2]; Vero cells,311 nM
same,IC50,"[1]; 600 nM NS3FL, 1 mM ATP",80000 ± 12000 nM
same,"NS3 ATPase inhibition, statistical difference from control (unpaired t-test, p < 0.05)",[1]; 50 µM compound,statistically different
"NC(=O)c1ncn([C@@H]2O[C@H](CO)[C@@H](O)[C@H]2O)n1 [Ribavirin, reference compound]",% of Inhibition of DENV-2 Replication (qPCR),DENV-2 [2],78.00%
O=C1C2=C(C(=O)c3ccccc31)C(c1ccc([N+](=O)[O-])cc1)C1=C(O2)C(=O)c2ccccc2C1=O [10b],% of Inhibition of DENV-2 Replication (qPCR),DENV-2 [2],0%
same,Inhibition of DENV-2 replication (in words),DENV-2 [2]; Vero cells,did not inhibit DENV-2 replication
same,"NS3 ATPase inhibition, statistical difference from control (unpaired t-test, p < 0.05)",[1]; 50 µM compound,statistically different
